Patent US20260070927A1, “INDAZOLE MACROCYCLES FOR THE TREATMENT OF AUTOIMMUNE DISEASE” (Hoffmann-La Roche Inc., priority 2022, published 2026)
pIC50: −log10 of the molar value.

Key:
[1] = Metabolic (liver microsomal) stability assay; conditions: human liver microsomes, 1 μM test compound
Method: The liver microsomal stability assay is used for early assessment of metabolic stability of a test compound in liver microsomes.
Liver microsomes were preincubated with test compound for 10 minutes at 37° C. in 100 mM potassium phosphate buffer, pH 7.4. The reactions were initiated by adding NADPH regenerating system. The final incubation mixtures contained 1 μM test compound, 0.5 mg/mL liver microsomal protein, 1 mM MgCl2, 1 mM NADP, 1 unit/mL isocitric dehydrogenase and 6 mM isocitric acid in 100 mM potassium phosphate buffer, pH 7.4. After incubation times of 0, 3, 6, 9, 15 and 30 minutes at 37° C., 300 μL of cold acetonitrile (including internal standard) was added to 100 μL incubation mixture to terminate the reaction. Following precipitation and centrifugation, the amount of compound remaining in the samples were determined by LC-MS/MS. Controls of no NADPH regenerating system at zero and 30 minutes were also prepared and analyzed.

[2] = target: human stimulator of interferon genes (STING) (139-379) (Homo sapiens (Human), UniProt Q86WV6); experiment: Microliter plate-based TR-FRET competition-binding assay for binders of STING; conditions: Alexa488 probe, read-out: FRET_IC50
Method: This is the competition-binding assay to test the compounds' potency to the C-terminal Domain (CTD) and ligand-binding domain of human stimulator of interferon genes (STING). STING (139-379, Q86WV6, http://www.uniprot.org/uniprot) recombinant protein (in 20 mM Tris, 150 mM NaCl, pH 8.0, and expression in Escherichia coli (E. coli) BL21 (DE3)) with a C-terminal flag-tag was employed for the assay. When Alexa-488 labeled active site probe (refer to patent WO2017/175156 A1) bounds to STING (139-379), it accepts the 485 nm emission from Tb-M2-Flag-STING and results in an increase in fluorescence at 520 nm. Compounds that compete for the probe-binding site will reduce 520 nm signal. The assay was run in proxiplate-384 plus (PerkinElmer, cat: 60150300) containing of 2.5 nM STING, 2.5 nM M2-Tb (Cisbio, 61FG2TLA, Lot: 17 A) and 250 nM Alexa488 probe. Plates were centrifuged for 1 min at 1000 rpm, incubated for 30 min at room temperature, and then measured the dual fluorescence emission at 520 nm/485 nM following 320 nm laser excitation on an Envision plate reader (Perkin-Elmer). The compounds' effect on the STING binding is detected by measuring ratiometric fluorescence from time-resolved FRET. The percentage of inhibition of at each compound concentration is calculated on the basis of their changes of TR-FRET efficiency relative to the change of TR-FRET caused by positive control 2′3′cGAMP (Sigma, cat: SML1229).

STING (IFN-β in hPBMC) = experiment: hPBMC cytokine functional assay (IFN-β decrease after Baculovirus stimulation); format: cell-based; conditions: Homo sapiens, Baculovirus MOI 40, 24 hours, read-out: hPBMC_IC50
Method: The inhibition of STING by compounds could be measured by the decrease of IFN-β in hPBMC, which is stimulated by a double stranded DNA virus Baculoviurs (Purchased from Genescript, pCMV-Dest Vector virus generation P2 BV stock virus, Sf-900 II medium with 5% FBS, Lot C9835DK230-2/P4DL001). Frozen hPBMC cells (purchased from Stemcell Technologies, cat number is 70025, Lot 191070803C) were thawed at 37° C. water bath, then cells were re-suspended in 50 ml tube using 20 ml Cell culture medium, and then centrifuged for 5 min at 2000 rpm before the supernatant was removed carefully. The cells were re-suspended in culture medium (RPMI-1640 with 1.5 g/L NaHCO3, 4.5 g/L glucose, 10 mM HEPES and 1 mM Na-pyruvate, 10% HI-FBS); 65 μL of the cell suspension was dispensed into 384 well plate (70K cells/well) by Multidrop Combi with at least 3 hours incubation at 37° C., 5% CO2 cell incubator.
Then 4 μL of compound solution per well (final 0.5% DMSO) was transferred by Agilent Bravo followed by infection with 11 μL of Baculovirus at a final MOI of 40. The level of IFN-β secreted in the supernatant of hPBMC was determined after 24 hours of incubation at 37° C. cell incubator by human IFN-β HTRF assay (Cisbio, cat: 62HIFNBPEH) following the manufacture's instruction. CellTiter-Glo kit (Promega, cat: G7573) was applied for the cell viability evaluation using Envision.

human stimulator of interferon genes (STING) (139-379), sequence (Q86WV6 139-379): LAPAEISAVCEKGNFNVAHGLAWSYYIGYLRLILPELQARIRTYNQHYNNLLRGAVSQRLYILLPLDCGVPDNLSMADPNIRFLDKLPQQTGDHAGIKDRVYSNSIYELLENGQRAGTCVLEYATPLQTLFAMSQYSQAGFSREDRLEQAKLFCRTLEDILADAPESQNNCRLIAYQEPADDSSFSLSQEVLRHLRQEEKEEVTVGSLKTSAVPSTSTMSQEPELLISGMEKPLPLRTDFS

SMILES	Clearance of human microsome [1] [mL/min/kg]	pIC50 [2]	pIC50 (STING (IFN-β in hPBMC))
CN1CCCc2c3c(cccc3nn2C)-c2ccnc(n2)N[C@H]2C[C@@H](C1=O)N(c1ncnc3c1cnn3-c1ccc(F)cc1F)C2 [Example 4, (8S,11S)-10-[1-(2,4-difluorophenyl)pyrazolo[3,4-d]pyrimidin-4-yl]-13,18-dimethyl-5,7,10,13,18,19,26-heptazapentacyclo[15.6.1.1^2,6.1^8,11.0^20,24]hexacosa-1(23),2,4,6(26),17(24),19,21-heptaen-12-one]	15.0	9.30	6.38
CN1CCCc2c3c(cccc3nn2C)-c2cncc(n2)N[C@H]2C[C@@H](C1=O)N(c1ncnc3c1cnn3-c1ccc(F)cc1F)C2 [Example 7, (8S,11S)-10-[1-(2,4-difluorophenyl)pyrazolo[3,4-d]pyrimidin-4-yl]-13,18-dimethyl-4,7,10,13,18,19,26-heptazapentacyclo[15.6.1.1^2,6.1^8,11.0^20,24]hexacosa-1(23),2,4,6(26),17(24),19,21-heptaen-12-one]	13.3	9.40	6.49
Cn1nc2cccc3c2c1CCCN(CCCO)C(=O)[C@@H]1C[C@@H](CN1c1ncnc2c1cnn2-c1ccc(F)cc1F)Oc1cccc-3c1 [Example 26, (8S,11S)-10-[1-(2,4-difluorophenyl)pyrazolo[3,4-d]pyrimidin-4-yl]-13-(3-hydroxypropyl)-18-methyl-7-oxa-10,13,18,19-tetrazapentacyclo[15.6.1.1^2,6.1^8,11.0^20,24]hexacosa-1(23),2(26),3,5,17(24),19,21-heptaen-12-one]	–	8.66	6.99
COCCCN1CCCc2c3c(cccc3nn2C)-c2cccc(c2)O[C@H]2C[C@@H](C1=O)N(c1ncnc3c1cnn3-c1ccc(F)cc1F)C2 [Example 27, (8S,11S)-10-[1-(2,4-difluorophenyl)pyrazolo[3,4-d]pyrimidin-4-yl]-13-(3-methoxypropyl)-18-methyl-7-oxa-10,13,18,19-tetrazapentacyclo[15.6.1.1^2,6.1^8,11.0^20,24]hexacosa-1(23),2(26),3,5,17(24),19,21-heptaen-12-one]	–	7.85	7.64
Cn1nc2cccc3c2c1CCCN(CCOCc1ccncc1)C(=O)[C@@H]1C[C@@H](CN1c1ncnc2c1cnn2-c1ccc(F)cc1F)Oc1cccc-3c1 [Example 28, (8S,11S)-10-[1-(2,4-difluorophenyl)pyrazolo[3,4-d]pyrimidin-4-yl]-18-methyl-13-[2-(4-pyridylmethoxy)ethyl]-7-oxa-10,13,18,19-tetrazapentacyclo[15.6.1.1^2,6.1^8,11.0^20,24]hexacosa-1(23),2(26),3,5,17(24),19,21-heptaen-12-one]	–	9.70	6.74
Cn1nc2cccc3c2c1CCCN(CCCc1ccccc1)C(=O)[C@@H]1C[C@@H](CN1c1ncnc2c1cnn2-c1ccc(F)cc1F)Oc1cccc-3c1 [Example 29, (8S,11S)-10-[1-(2,4-difluorophenyl)pyrazolo[3,4-d]pyrimidin-4-yl]-18-methyl-13-(3-phenylpropyl)-7-oxa-10,13,18,19-tetrazapentacyclo[15.6.1.1^2,6.1^8,11.0^20,24]hexacosa-1(23),2(26),3,5,17(24),19,21-heptaen-12-one]	–	8.92	7.51
Cn1nc2cccc3c2c1CCCN(CCCN1CCOCC1)C(=O)[C@@H]1C[C@@H](CN1c1ncnc2c1cnn2-c1ccc(F)cc1F)Oc1cccc-3c1 [Example 30, (8S,11S)-10-[1-(2,4-difluorophenyl)pyrazolo[3,4-d]pyrimidin-4-yl]-18-methyl-13-(3-morpholinopropyl)-7-oxa-10,13,18,19-tetrazapentacyclo[15.6.1.1^2,6.1^8,11.0^20,24]hexacosa-1(23),2(26),3,5,17(24),19,21-heptaen-12-one]	–	8.70	6.76
CC(=O)N1CCN(CCCN2CCCc3c4c(cccc4nn3C)-c3cccc(c3)O[C@H]3C[C@@H](C2=O)N(c2ncnc4c2cnn4-c2ccc(F)cc2F)C3)CC1 [Example 33, (8S,11S)-13-[3-(4-acetylpiperazin-1-yl)propyl]-10-[1-(2,4-difluorophenyl)pyrazolo[3,4-d]pyrimidin-4-yl]-18-methyl-7-oxa-10,13,18,19-tetrazapentacyclo[15.6.1.1^2,6.1^8,11.0^20,24]hexacosa-1(23),2(26),3,5,17(24),19,21-heptaen-12-one]	–	8.77	6.09
Cn1nc2cccc3c2c1CCCN(CCCN1CCN(S(C)(=O)=O)CC1)C(=O)[C@@H]1C[C@@H](CN1c1ncnc2c1cnn2-c1ccc(F)cc1F)Oc1cccc-3c1 [Example 35, (8S,11S)-10-[1-(2,4-difluorophenyl)pyrazolo[3,4-d]pyrimidin-4-yl]-18-methyl-13-[3-(4-methylsulfonylpiperazin-1-yl)propyl]-7-oxa-10,13,18,19-tetrazapentacyclo[15.6.1.1^2,6.1^8,11.0^20,24]hexacosa-1(23),2(26),3,5,17(24),19,21-heptaen-12-one]	–	9.70	6.74
Cn1nc2cccc3c2c1CCCN(CCCn1ccnc1)C(=O)[C@@H]1C[C@@H](CN1c1ncnc2c1cnn2-c1ccc(F)cc1F)Oc1cccc-3c1 [Example 38, (8S,11S)-10-[1-(2,4-difluorophenyl)pyrazolo[3,4-d]pyrimidin-4-yl]-13-(3-imidazol-1-ylpropyl)-18-methyl-7-oxa-10,13,18,19-tetrazapentacyclo[15.6.1.1^2,6.1^8,11.0^20,24]hexacosa-1(23),2(26),3,5,17(24),19,21-heptaen-12-one]	–	9.05	6.33
Cn1nc2cccc3c2c1CCCN(CCCc1ccccc1)C(=O)[C@@H]1C[C@@H](CN1c1ncnc2c1cnn2-c1ccc(F)cc1F)Oc1cccc-3n1 [Example 41, (8S,11S)-10-[1-(2,4-difluorophenyl)pyrazolo[3,4-d]pyrimidin-4-yl]-18-methyl-13-(3-phenylpropyl)-7-oxa-10,13,18,19,26-pentazapentacyclo[15.6.1.1^2,6.1^8,11.0^20,24]hexacosa-1(23),2(26),3,5,17(24),19,21-heptaen-12-one]	–	8.68	7.32
Cn1nc2cccc3c2c1CCCN(CCCO)C(=O)[C@@H]1C[C@@H](CN1c1ncnc2c1cnn2-c1ccc(F)cc1F)Nc1cccc-3n1 [Example 42, (8S,11S)-10-[1-(2,4-difluorophenyl)pyrazolo[3,4-d]pyrimidin-4-yl]-13-(3-hydroxypropyl)-18-methyl-7,10,13,18,19,26-hexazapentacyclo[15.6.1.1^2,6.1^8,11.0^20,24]hexacosa-1(23),2(26),3,5,17(24),19,21-heptaen-12-one]	13.3	8.28	–
COc1cc(F)ccc1-n1ncc2c(N3C[C@@H]4C[C@H]3C(=O)N(CCCN3CCOCC3)CCCc3c5c(cccc5nn3C)-c3cc(C)cc(n3)N4)ncnc21 [Example 46, (8S,11S)-10-[1-(4-fluoro-2-methoxy-phenyl)pyrazolo[3,4-d]pyrimidin-4-yl]-4,18-dimethyl-13-(3-morpholinopropyl)-7,10,13,18,19,26-hexazapentacyclo[15.6.1.1^2,6.1^8,11.0^20,24]hexacosa-1(23),2(26),3,5,17(24),19,21-heptaen-12-one]	14.9	8.12	–
